The supplement of paper PMC10307832

Experiments:
Assay in all cases: relative viability (nuclei count vs DMSO), 5 days (fraction); higher = more cells survive
H3255 = tested on: H3255
Method in brief: (§1)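 Lung cancer cell lines were pin-tool dosed in 1536-well plates on the day after seeding, with either a lone drug or a fixed anchor-drug dose plus five library-drug doses (not always all listed) in √10 steps. Nuclei were counted on 4× images after 5 days. Relative viability is the ratio of treated-well to vehicle-well nuclei counts, with each value a median of duplicate plates.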

LCLC-97TM1 = tested on: LCLC-97TM1
Method in brief: as §1

NCI-H1993 = tested on: NCI-H1993
Method in brief: as §1

NCI-H661 = tested on: NCI-H661
Method in brief: as §1

NCI-H2085 = tested on: NCI-H2085
Method in brief: as §1

NCI-H2023 = tested on: NCI-H2023
Method in brief: as §1

NCI-H1915 = tested on: NCI-H1915
Method in brief: as §1

EPLC-272H = tested on: EPLC-272H
Method in brief: as §1

HOP-62 = tested on: HOP-62
Method in brief: as §1

NCI-H2126 = tested on: NCI-H2126
Method in brief: as §1

NCI-H2347 = tested on: NCI-H2347
Method in brief: as §1

EMC-BAC-2 = tested on: EMC-BAC-2
Method in brief: as §1

SW 1573 = tested on: SW 1573
Method in brief: as §1

LXF-289 = tested on: LXF-289
Method in brief: as §1

PC-14 = tested on: PC-14
Method in brief: as §1

NCI-H2009 = tested on: NCI-H2009
Method in brief: as §1

NCI-H1734 = tested on: NCI-H1734
Method in brief: as §1

NCI-H647 = tested on: NCI-H647
Method in brief: as §1

NCI-H322M = tested on: NCI-H322M
Method in brief: as §1

NCI-H727 = tested on: NCI-H727
Method in brief: as §1

NCI-H1563 = tested on: NCI-H1563
Method in brief: as §1

SK-LU-1 = tested on: SK-LU-1
Method in brief: as §1

## CC(=O)O[C@@]12CO[C@@H]1C[C@H](O)[C@@]1(C)C(=O)[C@H](O)C3=C(C)[C@@H](OC(=O)[C@H](O)[C@@H](NC(=O)OC(C)(C)C)c4ccccc4)C[C@@](O)([C@@H](OC(=O)c4ccccc4)[C@H]21)C3(C)C [Docetaxel] + C[C@@H](Oc1cc(-c2cnn(C3CCNCC3)c2)cnc1N)c1c(Cl)ccc(F)c1Cl [Crizotinib] (partner 1 µM)
H3255; first compound 0.0002 µM
  relative viability: 0.654
H3255; first compound 0.000632 µM
  relative viability: 0.757
H3255; first compound 0.002 µM
  relative viability: 0.376
H3255; first compound 0.006325 µM
  relative viability: 0.267
H3255; first compound 0.02 µM
  relative viability: 0.252
LCLC-97TM1; first compound 0.000632 µM
  relative viability: 0.178
LCLC-97TM1; first compound 0.002 µM
  relative viability: 0.115
LCLC-97TM1; first compound 0.006325 µM
  relative viability: 0.139
LCLC-97TM1; first compound 0.02 µM
  relative viability: 0.12
NCI-H1993; first compound 0.0002 µM
  relative viability: 0.93
NCI-H1993; first compound 0.000632 µM
  relative viability: 0.787
NCI-H1993; first compound 0.002 µM
  relative viability: 0.791
NCI-H1993; first compound 0.006325 µM
  relative viability: 0.537
NCI-H1993; first compound 0.02 µM
  relative viability: 0.508
NCI-H661; first compound 0.000632 µM
  relative viability: 1.06
NCI-H661; first compound 0.002 µM
  relative viability: 0.914
NCI-H661; first compound 0.006325 µM
  relative viability: 0.68
NCI-H661; first compound 0.02 µM
  relative viability: 0.503
NCI-H2085; first compound 0.0002 µM
  relative viability: 0.63
NCI-H2085; first compound 0.000632 µM
  relative viability: 0.706
NCI-H2085; first compound 0.002 µM
  relative viability: 0.737
NCI-H2085; first compound 0.006325 µM
  relative viability: 0.415
NCI-H2085; first compound 0.02 µM
  relative viability: 0.317
NCI-H2023; first compound 0.0002 µM
  relative viability: 0.587
NCI-H2023; first compound 0.000632 µM
  relative viability: 0.451
NCI-H2023; first compound 0.002 µM
  relative viability: 0.123
NCI-H2023; first compound 0.006325 µM
  relative viability: 0.096
NCI-H2023; first compound 0.02 µM
  relative viability: 0.0789
NCI-H1915; first compound 0.0002 µM
  relative viability: 0.892
NCI-H1915; first compound 0.000632 µM
  relative viability: 0.803
NCI-H1915; first compound 0.002 µM
  relative viability: 0.325
NCI-H1915; first compound 0.006325 µM
  relative viability: 0.181
NCI-H1915; first compound 0.02 µM
  relative viability: 0.141
EPLC-272H; first compound 0.0002 µM
  relative viability: 0.832
EPLC-272H; first compound 0.000632 µM
  relative viability: 0.547
EPLC-272H; first compound 0.002 µM
  relative viability: 0.321
EPLC-272H; first compound 0.006325 µM
  relative viability: 0.0867
EPLC-272H; first compound 0.02 µM
  relative viability: 0.1
HOP-62; first compound 0.0002 µM
  relative viability: 0.903
HOP-62; first compound 0.000632 µM
  relative viability: 0.386
HOP-62; first compound 0.02 µM
  relative viability: 0.129
NCI-H2126; first compound 0.0002 µM
  relative viability: 1.01
NCI-H2126; first compound 0.000632 µM
  relative viability: 1.03
NCI-H2126; first compound 0.002 µM
  relative viability: 0.632
NCI-H2126; first compound 0.006325 µM
  relative viability: 0.382
NCI-H2126; first compound 0.02 µM
  relative viability: 0.322
NCI-H2347; first compound 0.0002 µM
  relative viability: 0.736
NCI-H2347; first compound 0.000632 µM
  relative viability: 0.702
NCI-H2347; first compound 0.002 µM
  relative viability: 0.695
NCI-H2347; first compound 0.006325 µM
  relative viability: 0.589
NCI-H2347; first compound 0.02 µM
  relative viability: 0.422
EMC-BAC-2; first compound 0.0002 µM
  relative viability: 0.651
EMC-BAC-2; first compound 0.000632 µM
  relative viability: 0.401
EMC-BAC-2; first compound 0.002 µM
  relative viability: 0.404
EMC-BAC-2; first compound 0.02 µM
  relative viability: 0.161
SW 1573; first compound 0.0002 µM
  relative viability: 0.737
SW 1573; first compound 0.000632 µM
  relative viability: 0.307
SW 1573; first compound 0.006325 µM
  relative viability: 0.218
SW 1573; first compound 0.02 µM
  relative viability: 0.203
LXF-289; first compound 0.0002 µM
  relative viability: 0.819
LXF-289; first compound 0.000632 µM
  relative viability: 0.483
LXF-289; first compound 0.002 µM
  relative viability: 0.452
LXF-289; first compound 0.006325 µM
  relative viability: 0.119
LXF-289; first compound 0.02 µM
  relative viability: 0.139
PC-14; first compound 0.0002 µM
  relative viability: 0.932
PC-14; first compound 0.000632 µM
  relative viability: 0.861
PC-14; first compound 0.002 µM
  relative viability: 0.317
PC-14; first compound 0.006325 µM
  relative viability: 0.0812
PC-14; first compound 0.02 µM
  relative viability: 0.0748
NCI-H2009; first compound 0.0002 µM
  relative viability: 0.95
NCI-H2009; first compound 0.000632 µM
  relative viability: 1.03
NCI-H2009; first compound 0.002 µM
  relative viability: 0.426
NCI-H2009; first compound 0.006325 µM
  relative viability: 0.252
NCI-H2009; first compound 0.02 µM
  relative viability: 0.174
NCI-H1734; first compound 0.0002 µM
  relative viability: 0.498
NCI-H1734; first compound 0.000632 µM
  relative viability: 0.576
NCI-H1734; first compound 0.002 µM
  relative viability: 0.362
NCI-H1734; first compound 0.006325 µM
  relative viability: 0.298
NCI-H1734; first compound 0.02 µM
  relative viability: 0.246
NCI-H647; first compound 0.0002 µM
  relative viability: 0.769
NCI-H647; first compound 0.000632 µM
  relative viability: 0.319
NCI-H647; first compound 0.002 µM
  relative viability: 0.172
NCI-H647; first compound 0.006325 µM
  relative viability: 0.117
NCI-H647; first compound 0.02 µM
  relative viability: 0.1
NCI-H322M; first compound 0.0002 µM
  relative viability: 0.817
NCI-H322M; first compound 0.000632 µM
  relative viability: 0.91
NCI-H322M; first compound 0.002 µM
  relative viability: 0.71
NCI-H322M; first compound 0.006325 µM
  relative viability: 0.233
NCI-H322M; first compound 0.02 µM
  relative viability: 0.405
NCI-H727; first compound 0.0002 µM
  relative viability: 0.862
NCI-H727; first compound 0.000632 µM
  relative viability: 0.815
NCI-H727; first compound 0.002 µM
  relative viability: 0.344
NCI-H727; first compound 0.006325 µM
  relative viability: 0.298
NCI-H727; first compound 0.02 µM
  relative viability: 0.24
NCI-H1563; first compound 0.0002 µM
  relative viability: 0.829
NCI-H1563; first compound 0.000632 µM
  relative viability: 0.926
NCI-H1563; first compound 0.002 µM
  relative viability: 0.928
NCI-H1563; first compound 0.006325 µM
  relative viability: 0.799
NCI-H1563; first compound 0.02 µM
  relative viability: 0.77
SK-LU-1; first compound 0.0002 µM
  relative viability: 0.692
SK-LU-1; first compound 0.000632 µM
  relative viability: 0.567
SK-LU-1; first compound 0.002 µM
  relative viability: 0.379
SK-LU-1; first compound 0.006325 µM
  relative viability: 0.249
SK-LU-1; first compound 0.02 µM
  relative viability: 0.272
